This is an account of results in PMC7897990, “TriTOX: A novel Trichomonas vaginalis assay platform for high-throughput screening of compound libraries” (International Journal for Parasitology: Drugs and Drug …, 2021).

For series [1], the system named is Trichomonas vaginalis G3 trophozoites. Briefly: microbe, parasite or virus in culture. As to conditions: 48 h.
Series [2] has the same test system.
For series [3], the system named is nontumorigenic neonatal foreskin fibroblast (NFF) cell line.
Where [4] appears, read: read-out: T.vaginalis_%inb_Rep1.
[5] abbreviates: read-out: T.vaginalis_%inb_Rep2.
[6] abbreviates: HTS, parasite screen at 1 µg/mL, replicate 1, raw absorbance.
[7] abbreviates: HTS, parasite screen at 1 µg/mL, replicate 2, raw absorbance.
[8] abbreviates: NFF fibroblasts, single concentration 5 µg/mL.
Where [9] appears, read: NFF fibroblast screen at 5 µg/mL, A = active, I = inactive.

The structures appear in SMILES notation. Counter-ions that a name gives are not always drawn. Like-named read-outs stand apart in the source and are kept apart here. Non-standard residues stand in square brackets, D forms with d. Residues, ends and D or L forms follow the SMILES beside them. aIle = CC[C@@H](C)[C@H](N)C(=O)O

Take `CC[C@H]1OC(=O)[C@H](C)[C@@H](O[C@H]2C[C@@](C)(OC)[C@@H](O)[C@H](C)O2)[C@H](C)[C@@H](O[C@@H]2O[C@H](C)C[C@H](N(C)C)[C@H]2O)[C@](C)(O)C[C@@H](C)[C@@H]2N[C@@H](COCCOC)O[C@H]([C@H]2C)[C@]1(C)O` [Dirithromycin]: the inhibition of growth at 1 µg/mL was determined as 8.51% in series [1] (setting [4]) and 2.24% in series [1] (setting [5]). In addition, the T.vaginalis_Absorbance_Rep1 in series [2] (setting [6]) is 0.867. The molecule further came in with a T.vaginalis_Absorbance_Rep2 in series [2] (setting [7]) of 0.651.
As for `COc1cc(C(=O)O)c2c(c1C)OC(=O)c1c(C)cc(O)c(C=O)c1O2` [Psoromic acid], the inhibition of growth at 1 µg/mL came out at 13.9% in series [1] (setting [4]) and 10.4% in series [1] (setting [5]). Further, the NFF_Activity result in series [3] (setting [8]) is “I (otherwise these were reported as inactive (I))”.
Take `C=C[C@]1(C)C[C@@H](OC(=O)CSCCN(CC)CC)[C@]2(C)[C@H](C)CC[C@]3(CCC(=O)[C@H]32)[C@@H](C)[C@@H]1O` [Tiamulin]: the results for the inhibition of growth at 1 µg/mL in series [1] (setting [4]) and in series [1] (setting [5]) were 12.6% and 13.9%, respectively. Further, the NFF_Activity result in series [3] (setting [9]) was “I (otherwise these were reported as inactive (I))”.
On to `C=C1CC[C@H]2C(C)(C)CCC[C@]2(C)[C@H]1C[C@@]12C[C@H]3C(=O)N4CCC[C@H]4C(=O)N3[C@@H]1Nc1ccccc12` [Drimentine C], for which the inhibition of growth at 1 µg/mL in series [1] (setting [4]) was 10.4%; in series [1] (setting [5]) it was 13.8%. In series [2] (setting [6]), the T.vaginalis_Absorbance_Rep1 is 0.907. This molecule also showed a T.vaginalis_Absorbance_Rep2 in series [2] (setting [7]) of 0.85.
Consider `Cn1c2ccccc2c(=O)c2c(O)cc3c(c21)C=CC(C)(C)O3` [Noracronycine], for which the inhibition of growth at 1 µg/mL in series [1] (setting [4]) was determined as 8.76%; in series [1] (setting [5]), 12.6%. Besides, the NFF_Activity result in series [3] (setting [8]) is “I (otherwise these were reported as inactive (I))”.
For `O=C1Cc2ccccc2N1` [Oxindole] the same measures were 12.2%, 14.4% and “I (otherwise these were reported as inactive (I))”.
For `CS(=O)(=O)c1ccc([C@@H](O)[C@@H](CF)NC(=O)C(Cl)Cl)cc1` [Florfenicol], the inhibition of growth at 1 µg/mL in series [1] (setting [4]) amounted to 7.7%; in series [1] (setting [5]), 9.33%. In series [2] (setting [6]), the T.vaginalis_Absorbance_Rep1 is given as 0.852. In addition, the T.vaginalis_Absorbance_Rep2 in series [2] (setting [7]) is given as 0.749.
In the case of `C=C(NC(=O)C(=C)NC(=O)c1csc(C2=N[C@@H]3c4csc(n4)[C@H]4NC(=O)c5csc(n5)[C@H]([C@](C)(O)[C@@H](C)O)NC(=O)[C@H]5CSC(=N5)/C(=C/C)NC(=O)[C@H]([C@@H](C)O)NC(=O)c5csc(n5)[C@]3(CC2)NC(=O)[C@H](C)NC(=O)C(=C)NC(=O)[C@H](C)NC(=O)[C@H]([C@@H](C)CC)N[C@@H]2C=Cc3c([C@H](C)O)cc(nc3[C@H]2O)C(=O)O[C@@H]4C)n1)C(N)=O` [Thiostrepton], the inhibition of growth at 1 µg/mL stood at 9.91% in series [1] (setting [4]) and 14.3% in series [1] (setting [5]). Moreover, the NFF_Activity result in series [3] (setting [9]) was “I (otherwise these were reported as inactive (I))”.
Consider `CN[C@H](CC(C)C)C(=O)N[C@H]1C(=O)N[C@@H](CC(N)=O)C(=O)N[C@H]2C(=O)N[C@H]3C(=O)N[C@H](C(=O)N[C@H](C(=O)O)c4cc(O)cc(O)c4-c4cc3ccc4O)[C@H](O)c3ccc(c(Cl)c3)Oc3cc2cc(c3O[C@@H]2O[C@H](CO)[C@@H](O)[C@H](O)[C@H]2O[C@H]2C[C@](C)(N)[C@H](O)[C@H](C)O2)Oc2ccc(cc2Cl)[C@H]1O` [Vancomycin hydrochloride], for which the values for the inhibition of growth at 1 µg/mL in series [1] (setting [4]) and in series [1] (setting [5]) were 1.36% and 5.42%, respectively. Besides, the NFF_Activity result in series [3] was “I (key: active (A) compounds having >25% inhibitory activity; otherwise these were reported as inactive (I))”.
Regarding `Cc1cc(O)c2c(c1)C(=O)c1cc(O)cc(O)c1C2=O` [Emodin], the inhibition of growth at 1 µg/mL in series [1] (setting [4]) stood at 17.8%; in series [1] (setting [5]), 12.6%. In series [2] (setting [6]), this molecule yielded a T.vaginalis_Absorbance_Rep1 of 1.052. Also, the T.vaginalis_Absorbance_Rep2 in series [2] (setting [7]) was 0.831.
In the case of `COC1=C2C[C@@H](C)C[C@H](OC)[C@H](O)[C@@H](C)/C=C(\C)[C@H](OC(N)=O)[C@@H](OC)/C=C\C=C(/C)C(=O)NC(=CC1=O)C2=O` [Geldanamycin], the inhibition of growth at 1 µg/mL in series [1] (setting [4]) was 13%; in series [1] (setting [5]), 14.1%. For the same molecule, the T.vaginalis_Absorbance_Rep1 in series [2] (setting [6]) stood at 0.958. Besides, the T.vaginalis_Absorbance_Rep2 in series [2] (setting [7]) is on record as 0.854.
For `C[C@@H](O)[C@H]1C(=O)N2C(C(=O)O)=C(S[C@@H]3CN[C@H](CNS(N)(=O)=O)C3)[C@H](C)[C@H]12` [Doripenem], the inhibition of growth at 1 µg/mL in series [1] (setting [4]) and in series [1] (setting [5]) was 15.6% throughout. The molecule also yielded a T.vaginalis_Absorbance_Rep1 in series [2] (setting [6]) of 0.999.
Consider `CC[C@@H](C)[C@@H]1NC(=O)[C@@H](CC(C)C)NC(=O)[C@H](CC(C)C)NC(=O)[C@H](Cc2c[nH]c3ccccc23)NC(=O)CNC(=O)[C@H](CC(N)=O)NC1=O` [Desotamide] (cyclo(GWL[dL][aIle]N)), for which the inhibition of growth at 1 µg/mL in series [1] (setting [4]) amounted to 15%; in series [1] (setting [5]), 4.99%. Further, the T.vaginalis_Absorbance_Rep1 in series [2] (setting [6]) stood at 0.987. For the same molecule, in series [2] (setting [7]), the T.vaginalis_Absorbance_Rep2 is given as 0.689.
For `C[C@H]1c2cccc(O)c2C(=O)C2=C(O)[C@]3(O)C(=O)C(C(N)=O)=C(O)[C@@H](N(C)C)[C@@H]3[C@@H](O)[C@@H]21` [Doxycycline] the same measures were 9.15%, 1.95%, 0.879 and 0.647.
Regarding `CCc1c(Cl)c(O)c(Cl)c(O)c1C(=O)O[C@H]1[C@H](O)[C@H](OC)[C@H](OC/C2=C\C=C\C[C@H](O)/C(C)=C/[C@H](CC)[C@@H](O[C@@H]3OC(C)(C)[C@@H](OC(=O)C(C)C)[C@H](O)[C@@H]3O)/C(C)=C/C(C)=C/C[C@@H]([C@@H](C)O)OC2=O)O[C@@H]1C` [Fidaxomicin], the inhibition of growth at 1 µg/mL was determined as 11.5% in series [1] (setting [4]) and 10.1% in series [1] (setting [5]). Moreover, the T.vaginalis_Absorbance_Rep1 in series [2] (setting [6]) stood at 0.922. In series [2] (setting [7]), this molecule showed a T.vaginalis_Absorbance_Rep2 of 0.759.
`CC(=O)O[C@H]1CC[C@@]2(C)[C@@H](CC[C@@H]3[C@@H]2CC(=O)[C@]2(C)[C@@H]4[C@H](C[C@@H]32)O[C@]2(CC[C@@H](C)CO2)[C@H]4C)C1` [Hecogenin acetate]: the inhibition of growth at 1 µg/mL in series [1] (setting [4]) is 10.4%; in series [1] (setting [5]), 14.1%. The molecule also gave a T.vaginalis_Absorbance_Rep1 in series [2] (setting [6]) of 0.908. In series [2] (setting [7]), this molecule had a T.vaginalis_Absorbance_Rep2 of 0.854.
As to `COc1cccc2c1C(=O)c1c(O)c3c(c(O)c1C2=O)C[C@@](O)(C(=O)CO)C[C@@H]3O[C@H]1C[C@H](N)[C@H](O)[C@H](C)O1` [Doxorubicin], the inhibition of growth at 1 µg/mL in series [1] (setting [4]) worked out at 13.5%; in series [1] (setting [5]), 3.11%. In series [2] (setting [6]), the T.vaginalis_Absorbance_Rep1 is 0.959. In addition, the T.vaginalis_Absorbance_Rep2 in series [2] (setting [7]) was found to be 0.663.
In the case of `CO[C@H]1C[C@@H]2CC[C@@H](C)[C@@](O)(O2)C(=O)C(=O)N2CCCC[C@H]2C(=O)O[C@H]([C@H](C)C[C@@H]2CC[C@H](n3cnnn3)[C@H](OC)C2)CC(=O)[C@H](C)/C=C(\C)[C@@H](O)[C@@H](OC)C(=O)[C@H](C)C[C@H](C)/C=C/C=C/C=C/1C` [Zotarolimus], the figures for the inhibition of growth at 1 µg/mL in series [1] (setting [4]) and in series [1] (setting [5]) were 10.4% and 6.09%, respectively.
In the case of `COC1=CC(=O)C[C@@H](C)[C@]12Oc1c(Cl)c(OC)cc(OC)c1C2=O` [Griseofulvin], the inhibition of growth at 1 µg/mL amounted to 12.4% in series [1] (setting [4]) and 12.1% in series [1] (setting [5]). This molecule came in with a T.vaginalis_Absorbance_Rep1 in series [2] (setting [6]) of 0.947. The molecule also gave a T.vaginalis_Absorbance_Rep2 in series [2] (setting [7]) of 0.823.
In the case of `C[C@H]1[C@H](C)CC[C@]2(C(=O)O)CC[C@]3(C)C(=CC[C@@H]4[C@@]5(C)CC[C@H](O)C(C)(C)[C@@H]5CC[C@]43C)[C@H]12` [Ursolic acid], the inhibition of growth at 1 µg/mL came out at 7.39% in series [1] (setting [4]) and 10.4% in series [1] (setting [5]).
In the case of `CC(=O)O[C@H]1C[C@@]2(C)[C@@H](CC[C@H]3[C@@]4(C)C=CC(=O)[C@@H](C)[C@@H]4[C@H](OC(C)=O)C(=O)[C@@]32C)/C1=C(\CCC=C(C)C)C(=O)O` [Helvolic acid], the inhibition of growth at 1 µg/mL was 5.19% in series [1] (setting [4]) and 10.6% in series [1] (setting [5]). The molecule also returned a T.vaginalis_Absorbance_Rep1 in series [2] (setting [6]) of 0.864. Besides, in series [2] (setting [7]), the T.vaginalis_Absorbance_Rep2 came out at 0.811.
For the molecule `CC[C@@H](C(=O)O)[C@@H]1O[C@@H]([C@@H](C)[C@H](O)[C@H](C)C(=O)[C@H](CC)[C@H]2O[C@]3(C=C[C@@H](O)[C@]4(CC[C@@](C)([C@H]5CC[C@](O)(CC)[C@H](C)O5)O4)O3)[C@H](C)C[C@@H]2C)[C@@H](C)C[C@@H]1C` [Narasin], the inhibition of growth at 1 µg/mL in series [1] (setting [4]) was found to be 6.14%; in series [1] (setting [5]) it was 4.3%.
Turning to `CC(=O)O[C@H]1C[C@@]2(C)[C@@H](C[C@@H](O)[C@H]3[C@@]4(C)CC[C@@H](O)[C@@H](C)[C@@H]4CC[C@@]32C)/C1=C(\CCC=C(C)C)C(=O)O` [Fusidate sodium], the inhibition of growth at 1 µg/mL in series [1] (setting [4]) is 4.26%; in series [1] (setting [5]), 1.6%. Besides, the T.vaginalis_Absorbance_Rep1 in series [2] (setting [6]) was 0.786. In addition, in series [2] (setting [7]), the T.vaginalis_Absorbance_Rep2 is on record as 0.66.
On to `O=C(O)c1ccc[nH]1` [Pyrrole-2-carboxylic acid], for which the inhibition of growth at 1 µg/mL is 17.3% in series [1] (setting [4]) and 11.6% in series [1] (setting [5]).
For `C/C(=C\C(=O)OCCCCCCCCC(=O)O)C[C@@H]1OC[C@H](C[C@@H]2O[C@H]2[C@@H](C)[C@H](C)O)[C@@H](O)[C@H]1O` [Pseudomonic acid], in that order: 11.5% and 11.7%.
Regarding `CN(C)[C@H]1C(O)=C(C(N)=O)C(=O)[C@@]2(O)C(O)=C3C(=O)c4c(O)cccc4[C@@](C)(O)[C@H]3C[C@@H]12` [Epitetracycline hydrochloride], the values for the inhibition of growth at 1 µg/mL in series [1] (setting [4]) and in series [1] (setting [5]) were 11% and 4.41%, respectively.
For the molecule `O=C(O)c1cccc(C(=O)O)n1` [Dipicolinic acid], the inhibition of growth at 1 µg/mL in series [1] (setting [4]) came to 13.9%; in series [1] (setting [5]), 2.6%. Also, in series [2], the T.vaginalis_Absorbance_Rep1 turned out to be 0.967. In series [2], this molecule showed a T.vaginalis_Absorbance_Rep2 of 0.656.
